Laboratory results as given in patent US11873291B2, “Quinoline cGAS antagonist compounds” (ImmuneSensor Therapeutics, Inc., priority 2020, dated 2024).

What follows are compounds tested against T1, recombinant human cGAS (aa147-522) (Homo sapiens, UniProt Q8N884) (assay: In vitro inhibition assay of cGAS activity (ATP consumption, KinaseGlo Max)). Conditions: Table 2, read-out: cGAS Inhibition Results IC50.
T1 construct: recombinant human cGAS (aa147-522); His6-SUMO (cleaved yes); made in house; host or cells: E. coli BL21/pLys
T1 sequence (Q8N884 147-522): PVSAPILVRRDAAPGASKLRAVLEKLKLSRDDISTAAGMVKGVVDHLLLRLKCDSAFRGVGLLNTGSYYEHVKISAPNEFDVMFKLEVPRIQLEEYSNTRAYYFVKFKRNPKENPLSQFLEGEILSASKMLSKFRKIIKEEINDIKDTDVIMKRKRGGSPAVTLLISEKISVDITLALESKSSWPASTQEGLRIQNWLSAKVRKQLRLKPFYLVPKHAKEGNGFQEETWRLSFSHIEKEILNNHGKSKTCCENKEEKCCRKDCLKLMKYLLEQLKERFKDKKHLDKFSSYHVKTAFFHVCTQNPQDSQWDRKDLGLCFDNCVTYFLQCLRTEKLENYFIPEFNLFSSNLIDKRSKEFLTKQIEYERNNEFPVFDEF
Assay type: biochemical
Method in brief: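 IC50 came from plotting % ATP consumption against log compound concentration, with leftover ATP detected by KinaseGlo Max chemiluminescence. Reactions ran 20 min at 37 °C with 1.5 μg/mL human cGAS (aa147-522), 6.6 μM ATP, 0.1 mM GTP and 0.01 mg/mL DNA at pH 7.5.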
With `O=C1NC(=O)C(CCCc2cc(-c3cn[nH]c3)c3ccc(Cl)c(Cl)c3n2)S1` (centres unmarked) [I-272, 5-(3-(7,8-dichloro-4-(1H-pyrazol-4-yl)quinolin-2-yl)propyl)thiazolidine-2,4-dione] the IC50 was 2000 to 30000 nM. `Cc1cc(NCC(N)=O)c2ccc(Cl)c(Cl)c2n1` [I-313] gave an IC50 greater than 30000 nM. With `NC(=O)NC1CCCN(c2cc(-n3ccnc3)c3ccc(Cl)cc3n2)C1` (centres unmarked) [I-104, 1-(1-(7-chloro-4-(1H-imidazol-1-yl)quinolin-2-yl)piperidin-3-yl)urea] the IC50 was 2000 to 30000 nM. `NC[C@@H]1CCCN1c1cc(-n2ccnc2)c2ccc(Cl)c(Cl)c2n1` [I-153, (S)-(1-(7,8-dichloro-4-(1H-imidazol-1-yl)quinolin-2-yl)pyrrolidin-2-yl)methanamine] gave an IC50 of 2000 to 30000 nM. For `O=C(O)C1CCCCC1Nc1cc(-n2ccnc2)c2ccc(Cl)cc2n1` (centres unmarked) [I-333], the IC50 was greater than 30000 nM. In the case of `CC(C)[C@H](CS(N)(=O)=O)Nc1cc(-n2ccnc2)c2ccc(Cl)c(Cl)c2n1` [I-209], the IC50 is reported as greater than 30000 nM. `CS(=O)(=O)NC[C@@H]1CCCN1c1cc(-n2ccnc2)c2ccc(Cl)c(Cl)c2n1` [I-151] gave an IC50 of less than 2000 nM. With `C[C@@H](Nc1cc(-c2cn[nH]c2)c2ccc(Cl)c(Cl)c2n1)C(=O)OC(C)(C)C` [I-402] the IC50 was 2000 to 30000 nM. Work on `O=C(CO)NC1CCCN(c2cc(-n3ccnc3)c3ccc(Cl)cc3n2)C1` (centres unmarked) [I-106, N-(1-(7-chloro-4-(1H-imidazol-1-yl)quinolin-2-yl)piperidin-3-yl)-2-hydroxyacetamide] yielded an IC50 of 2000 to 30000 nM. In the case of `CN1CCN(c2cc(-n3ccnc3)c3ccc(Cl)c(Cl)c3n2)CC1C(=O)O` (centres unmarked) [I-82, 4-(7,8-Dichloro-4-(1H-imidazol-1-yl)quinolin-2-yl)-1-methylpiperazine-2-carboxylic acid], the IC50 is reported as less than 2000 nM. Compound `NS(=O)(=O)CCNc1cc(-c2cn[nH]c2)c2c(Cl)cc(Cl)cc2n1` [I-263] has an IC50 greater than 30000 nM. In the case of `OC[C@@H]1C[C@@H](O)CN1c1cc(-n2ccnc2)c2ccc(Cl)c(Cl)c2n1` [I-142], the IC50 is reported as less than 2000 nM. Work on `O=S(=O)(NC1CCCN(c2cc(-n3ccnc3)c3ccc(Cl)cc3n2)C1)C1CC1` (centres unmarked) [I-100] yielded an IC50 of less than 2000 nM. Compound `CC(=O)NCCN(C)c1cc(-n2ccnc2)c2ccc(Cl)cc2n1` [I-236] has an IC50 of 2000 to 30000 nM. `CCOC(=O)c1ccccc1-c1cc(-n2ccnc2)c2ccc(Cl)cc2n1` [I-12] gave an IC50 greater than 30000 nM. `CN(C)C(=O)CCN(C)c1cc(-c2cn[nH]c2)c2ccc(Cl)c(Cl)c2n1` [I-197] showed an IC50 of less than 2000 nM. `Oc1ccc(-c2cc(-c3ccccc3)nc3cc(Cl)ccc23)cn1` [I-73] was tested, and the IC50 was greater than 30000 nM. With `Clc1ccc2c(-n3ccnc3)cc(OCCN3CCOCC3)nc2c1` [I-279] the IC50 was greater than 30000 nM. `CC(CN1CCOCC1)Nc1cc(-c2cn[nH]c2)c2ccc(Cl)c(Cl)c2n1` (centres unmarked) [I-211] was tested, and the IC50 was 2000 to 30000 nM. `Oc1c(Br)ccc2c(-n3ccnc3)cc(-c3ccccc3)nc12` [I-53, 7-bromo-4-(1H-imidazol-1-yl)-2-phenylquinolin-8-ol] was tested, and the IC50 was 2000 to 30000 nM. `NS(=O)(=O)CC(Cc1ccccc1)Nc1cc(-n2ccnc2)c2ccc(Cl)c(Cl)c2n1` (centres unmarked) [I-208, 2-((7,8-dichloro-4-(1H-imidazol-1-yl)quinolin-2-yl)amino)-3-phenylpropane-1-sulfonamide] was tested, and the IC50 was 2000 to 30000 nM. With `CN(CCC(=O)O)c1cc(-c2cn[nH]c2)c2ccc(Cl)c(Cl)c2n1` [I-184] the IC50 was less than 2000 nM. Work on `O=C(O)c1cc(-c2cc(Cl)c3ccc(Cl)c(Cl)c3n2)ccc1O` [I-75, 2-Hydroxy-5-(4,7,8-trichloroquinolin-2-yl)benzoic acid] yielded an IC50 greater than 30000 nM. Work on `O=C(O)COc1c(Br)ccc2c(-n3ccnc3)cc(-c3ccccc3)nc12` [I-379, 2-((7-bromo-4-(1H-imidazol-1-yl)-2-phenylquinolin-8-yl)oxy)acetic acid] yielded an IC50 of 2000 to 30000 nM. `c1ccc2c(-n3ccnc3)ccnc2c1` [I-410] was tested, and the IC50 was greater than 30000 nM. `O=C(O)CCNC(=O)[C@@H]1CCCN1c1cc(-n2ccnc2)c2ccc(Cl)c(Cl)c2n1` [I-324] showed an IC50 of less than 2000 nM. For `FC(F)(F)c1cc(-n2ccnc2)c2ccc(Cl)cc2n1` [I-422], the IC50 was greater than 30000 nM. `c1ccc2c(-n3cccn3)ccnc2c1` [I-413] was tested, and the IC50 was greater than 30000 nM. For `NS(=O)(=O)C1CCCN(c2cc(-c3cn[nH]c3)c3ccc(Cl)c(Cl)c3n2)C1` (centres unmarked) [I-373], the IC50 was less than 2000 nM. Compound `Clc1ccc2c(-c3cc[nH]c3)cc(-c3ccccc3)nc2c1` [I-72] has an IC50 greater than 30000 nM. With `O=C1NC(=O)/C(=C\c2cc(-n3ccnc3)c3ccc(Cl)c(Cl)c3n2)S1` [I-276, (E)-5-((7,8-dichloro-4-(1H-imidazol-1-yl)quinolin-2-yl)methylene)thiazolidine-2,4-dione] the IC50 was less than 2000 nM. `Clc1ccc2c(-n3ccnc3)cc(N3CCCCC3)nc2c1Cl` [I-121] was tested, and the IC50 was 2000 to 30000 nM. `O=C(O)c1cccc(-c2cc(-n3ccnc3)c3ccc(C(F)(F)F)cc3n2)c1` [I-49, 3-(4-(1H-imidazol-1-yl)-7-(trifluoromethyl)quinolin-2-yl)benzoic acid] showed an IC50 greater than 30000 nM. With `O=C(O)[C@H]1CN(c2cc(-c3cn[nH]c3)c3ccc(Cl)c(Cl)c3n2)CCO1` [I-328] the IC50 was less than 2000 nM. `Clc1ccc2c(-n3ccnc3)cc(NCCN3CCOCC3)nc2c1` [I-354] showed an IC50 greater than 30000 nM. `O=S1(=O)CCN(c2cc(-n3ccnc3)c3ccc(Cl)c(Cl)c3n2)CC1` [I-87] was tested, and the IC50 was 2000 to 30000 nM. `O=C(O)[C@@H]1CCCN1C(=O)C[C@@H]1CCCN1c1cc(-c2cn[nH]c2)c2ccc(Cl)c(Cl)c2n1` [I-325] was tested, and the IC50 was less than 2000 nM. Work on `O=C1CN(c2cc(-n3ccnc3)c3ccc(Cl)c(Cl)c3n2)CC(C(=O)O)N1` (centres unmarked) [I-334] yielded an IC50 greater than 30000 nM. For `CCN1CCN(c2cc(-n3ccnc3)c3ccc(Cl)c(Cl)c3n2)CC1C(=O)O` (centres unmarked) [I-80], the IC50 was less than 2000 nM. Compound `CN(CCC(=O)NCC(=O)O)c1cc(-n2ccnc2)c2ccc(Cl)c(Cl)c2n1` [I-321] has an IC50 of less than 2000 nM. `Brc1ccc2c(-n3nccn3)ccnc2c1` [I-419] showed an IC50 greater than 30000 nM. `CC(=O)N1CCOC(CNc2cc(-c3cn[nH]c3)c3ccc(Cl)c(Cl)c3n2)C1` (centres unmarked) [I-221, 1-(2-(((7,8-dichloro-4-(1H-pyrazol-4-yl)quinolin-2-yl)amino)methyl)morpholino)ethan-1-one] gave an IC50 of less than 2000 nM. Work on `CN(CCO)c1cc(-c2cn[nH]c2)c2ccc(Cl)c(Cl)c2n1` [I-240] yielded an IC50 of less than 2000 nM. Work on `OC[C@H]1CCCN1c1cc(-n2ccnc2)c2ccc(Cl)c(Cl)c2n1` [I-141] yielded an IC50 of less than 2000 nM. Compound `Clc1ccc2c(-n3ccnc3)cc(-c3ccccc3)nc2c1` [I-1] has an IC50 of 2000 to 30000 nM. With `CCN(CCN1CCOCC1)c1cc(-c2cn[nH]c2)c2ccc(Cl)c(Cl)c2n1` [I-212] the IC50 was 2000 to 30000 nM. Compound `Oc1cccc(-c2cc(-n3ccnc3)c3ccc(Cl)c(Cl)c3n2)c1` [I-43] has an IC50 of less than 2000 nM.

Same assay, conditions: Table 3, read-out: cGAS Inhibition Results IC50
In the case of `O=C(O)c1ccc(OC[C@@H]2CCCN2c2cc(-n3ccnc3)c3ccc(Cl)c(Cl)c3n2)cc1` [I-737], the IC50 is reported as less than 2000 nM. With `CN(CCNC(=O)CCO)c1cc(-n2ccnc2)c2ccc(Cl)c(Cl)c2n1` [I-614] the IC50 was 2000 to 30000 nM. `O=C(O)CCOCC(COCCC(=O)O)Nc1cc(-n2ccnc2)c2ccc(Cl)c(Cl)c2n1` [I-874] was tested, and the IC50 was less than 2000 nM. `O=C(O)[C@@H]1C[C@H](O)CN1c1cc(-n2ccnc2)c2ccc(Cl)c(Cl)c2n1` [I-455] showed an IC50 of less than 2000 nM. In the case of `O=C1NCC2CCC1N2c1cc(-n2ccnc2)c2ccc(Cl)c(Cl)c2n1` (centres unmarked) [I-503], the IC50 is reported as less than 2000 nM. Compound `CN(CCS(=O)(=O)NC1CCC(C(=O)O)C1)c1cc(-n2ccnc2)c2ccc(Cl)c(Cl)c2n1` (centres unmarked) [I-625] has an IC50 of less than 2000 nM. For `CN(CCN1C(=O)c2ccccc2S1(=O)=O)c1cc(-n2ccnc2)c2ccc(Cl)c(Cl)c2n1` [I-621], the IC50 was 2000 to 30000 nM. `CC1(C)C2[C@@H](C(=O)O)N(c3cc(-n4ccnc4)c4ccc(Cl)c(Cl)c4n3)C[C@@H]21` (some centres unmarked) [I-517] showed an IC50 of less than 2000 nM. `Clc1ccc2c(-n3ccnc3)cc(N3CCC(c4nn[nH]n4)C3)nc2c1Cl` (centres unmarked) [I-464] showed an IC50 of less than 2000 nM. `O=C(C[C@@H]1CCCN1c1cc(-n2ccnc2)c2ccc(Cl)c(Cl)c2n1)NC1CCNC1=O` (some centres unmarked) [I-541] was tested, and the IC50 was less than 2000 nM. In the case of `O=C(O)Cc1ccc(OC[C@@H]2CCCN2c2cc(-n3ccnc3)c3ccc(Cl)c(Cl)c3n2)cc1` [I-738], the IC50 is reported as less than 2000 nM. In the case of `CN(CCS(=O)(=O)NC1CCCC(C(=O)O)C1)c1cc(-n2ccnc2)c2ccc(Cl)c(Cl)c2n1` (centres unmarked) [I-628], the IC50 is reported as less than 2000 nM. With `O=C(O)Cc1csc(CNc2cc(-n3ccnc3)c3ccc(Cl)c(Cl)c3n2)n1` [I-881] the IC50 was less than 2000 nM. For `CN(CCNS(=O)(=O)CC(=O)O)c1cc(-n2ccnc2)c2ccc(Cl)c(Cl)c2n1` [I-618], the IC50 was less than 2000 nM. For `CC(C)(O)[C@@H]1CCCN1c1cc(-n2ccnc2)c2ccc(Cl)c(Cl)c2n1` [I-484], the IC50 was 2000 to 30000 nM. `CN(CCS(=O)(=O)NCCO)c1cc(-n2ccnc2)c2ccc(Cl)c(Cl)c2n1` [I-624, 2-((7,8-dichloro-4-(1H-imidazol-1-yl)quinolin-2-yl)(methyl)amino)-N-(2-hydroxyethyl)ethane-1-sulfonamide] was tested, and the IC50 was less than 2000 nM. `O=C(O)CCOC[C@@H]1CCCN1c1cc(-n2ccnc2)c2ccc(Cl)c(-c3ccccc3)c2n1` [I-863, (S)-3-((1-(7-chloro-4-(1H-imidazol-1-yl)-8-phenylquinolin-2-yl)pyrrolidin-2-yl)methoxy)propanoic acid] was tested, and the IC50 was greater than 30000 nM. Work on `O=c1nc([C@@H]2CCCN2c2cc(-n3ccnc3)c3ccc(Cl)c(Cl)c3n2)o[nH]1` [I-605, (S)-5-(1-(7,8-dichloro-4-(1H-imidazol-1-yl)quinolin-2-yl)pyrrolidin-2-yl)-1,2,4-oxadiazol-3(2H)-one] yielded an IC50 greater than 30000 nM. `O=C(O)[C@H]1[C@H](O)CCN1c1cc(-n2ccnc2)c2ccc(Cl)c(Cl)c2n1` [I-498] was tested, and the IC50 was 2000 to 30000 nM. Compound `COC(=O)[C@@H]1[C@H](OC)CCN1c1cc(-n2ccnc2)c2ccc(Cl)c(Cl)c2n1` [I-647] has an IC50 of 2000 to 30000 nM. With `O=C(O)CCO[C@H]1CCN(c2cc(-n3ccnc3)c3ccc(Cl)c(Cl)c3n2)C1` [I-771] the IC50 was 2000 to 30000 nM. Compound `CC(C)COC(=O)[C@@H]1[C@@H](O)CCN1c1cc(-n2ccnc2)c2ccc(Cl)c(Cl)c2n1` [I-602] has an IC50 of 2000 to 30000 nM. `OC1CC2CCCC(C1)N2c1cc(-n2ccnc2)c2ccc(Cl)c(Cl)c2n1` (centres unmarked) [I-492] was tested, and the IC50 was 2000 to 30000 nM. Compound `O=C1NC(=O)[C@H](CS(=O)(=O)NC[C@@H]2CCCN2c2cc(-n3ccnc3)c3ccc(Cl)c(Cl)c3n2)N1` [I-637] has an IC50 of less than 2000 nM.
